What all share (assay): relative viability (nuclei count vs DMSO), 5 days (fraction); higher = more cells survive
Compound in assay [1]: O=C(O)c1ccc2c(c1)nc(Nc1cccc(Cl)c1)c1ccncc12 [Silmitasertib] + CC1(C)CCC(c2ccc(Cl)cc2)=C(CN2CCN(c3ccc(C(=O)NS(=O)(=O)c4ccc(N[C@H](CCN5CCOCC5)CSc5ccccc5)c(S(=O)(=O)C(F)(F)F)c4)cc3)CC2)C1 [Navitoclax] (partner 0.5 µM)
The gist of the method:
(§1)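 Relative viability divides the nuclei count in treated wells by that in vehicle wells. Lung cancer cell lines were seeded in 1536-well plates, dosed by pin tool the next day, and fixed and stained after 5 days in one step with final 0.05% Triton X-100, 1% formaldehyde and 1 ug/ml Hoechst. Dosing was a single drug or a fixed anchor-drug dose plus five library-drug doses (not always all listed) in √10 steps, and values are medians of duplicate plates imaged at 4×.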

Compound in assay [2]: O=C(O)c1ccc2c(c1)nc(Nc1cccc(Cl)c1)c1ccncc12 [Silmitasertib] + CS(=O)(=O)CCNCc1ccc(-c2ccc3ncnc(Nc4ccc(OCc5cccc(F)c5)c(Cl)c4)c3c2)o1 [Lapatinib] (partner 2 µM)
An outline of the steps: as §1

Compound in assay [3]: O=C(O)c1ccc2c(c1)nc(Nc1cccc(Cl)c1)c1ccncc12 [Silmitasertib] + CC(=O)Nc1cccc(-n2c(=O)n(C3CC3)c(=O)c3c(Nc4ccc(I)cc4F)n(C)c(=O)c(C)c32)c1 [Trametinib] (partner 0.02 µM)
An outline of the steps:
as §1

Compound in assay [4]: O=C(O)c1ccc2c(c1)nc(Nc1cccc(Cl)c1)c1ccncc12 [Silmitasertib] + COc1cc2c(Oc3ccc(NC(=O)C4(C(=O)Nc5ccc(F)cc5)CC4)cc3F)ccnc2cc1OCCCN1CCOCC1 [Foretinib] (partner 0.25 µM)
The gist of the method: as §1

Compound in assay [5]: O=C(O)c1ccc2c(c1)nc(Nc1cccc(Cl)c1)c1ccncc12 [Silmitasertib] + Cc1nc(Nc2ncc(C(=O)Nc3c(C)cccc3Cl)s2)cc(N2CCN(CCO)CC2)n1 [Dasatinib] (partner 0.075 µM)
The gist of the method: as §1

On to NCI-H1395, for which the relative viability in assay [1] (first compound 0.04 µM) was found to be 1.2; in assay [1] (first compound 0.4 µM) it was 0.816; in assay [1] (first compound 1.265 µM), 1.1; in assay [1] (first compound 4 µM), 0.947; in assay [2] (first compound 0.04 µM) it was 1.29; in assay [2] (first compound 0.4 µM), 0.672. In addition, the relative viability in assay [2] (first compound 1.265 µM) was found to be 0.919; in assay [2] (first compound 4 µM), 0.68; in assay [3] (first compound 0.04 µM), 1.07; in assay [3] (first compound 0.4 µM) it was 0.809; in assay [3] (first compound 1.265 µM) it was 1.03; in assay [3] (first compound 4 µM), 1.14. Also, the relative viability in assay [4] (first compound 0.04 µM) is 0.894; in assay [4] (first compound 0.4 µM) it was 0.805; in assay [4] (first compound 1.265 µM), 0.97; in assay [4] (first compound 4 µM), 0.972; in assay [5] (first compound 0.04 µM), 0.471; in assay [5] (first compound 0.4 µM), 0.387. For the same cell line, the relative viability in assay [5] (first compound 1.265 µM) was found to be 0.431; in assay [5] (first compound 4 µM) it was 0.414.
Consider NCI-H1437, for which the relative viability in assay [1] (first compound 0.04 µM) came out at 1.11; in assay [1] (first compound 1.265 µM), 0.906; in assay [1] (first compound 4 µM) it was 0.828; in assay [2] (first compound 0.04 µM) it was 0.865; in assay [2] (first compound 1.265 µM), 0.483; in assay [2] (first compound 4 µM) it was 0.347. The relative viability turned out to be 0.493 in assay [3] (first compound 0.04 µM); 0.466 in assay [3] (first compound 0.4 µM); 0.353 in assay [3] (first compound 1.265 µM); 0.274 in assay [3] (first compound 4 µM); 1.28 in assay [4] (first compound 0.04 µM); 1.16 in assay [4] (first compound 0.4 µM). Besides, the relative viability in assay [4] (first compound 1.265 µM) stood at 1.24; in assay [4] (first compound 4 µM) it was 0.942; in assay [5] (first compound 0.04 µM), 0.483; in assay [5] (first compound 0.4 µM), 0.376; in assay [5] (first compound 1.265 µM) it was 0.272; in assay [5] (first compound 4 µM) it was 0.322.
Turning to NCI-H1650, the relative viability in assay [1] (first compound 0.04 µM) was found to be 1.38; in assay [1] (first compound 0.4 µM), 1.24; in assay [1] (first compound 1.265 µM), 0.695; in assay [1] (first compound 4 µM), 0.414; in assay [2] (first compound 0.04 µM), 1.4; in assay [2] (first compound 0.4 µM), 0.825. In addition, the relative viability in assay [2] (first compound 1.265 µM) was 0.671; in assay [2] (first compound 4 µM), 0.23; in assay [3] (first compound 0.04 µM), 0.769; in assay [3] (first compound 0.4 µM), 0.56; in assay [3] (first compound 1.265 µM), 0.428; in assay [3] (first compound 4 µM) it was 0.256. Further, the relative viability is 1.47 in assay [4] (first compound 0.04 µM); 1.34 in assay [4] (first compound 0.4 µM); 0.902 in assay [4] (first compound 1.265 µM); 0.653 in assay [4] (first compound 4 µM); 0.358 in assay [5] (first compound 0.04 µM); 0.35 in assay [5] (first compound 0.4 µM). For the same cell line, the relative viability was 0.248 in assay [5] (first compound 1.265 µM) and 0.242 in assay [5] (first compound 4 µM).
Turning to NCI-H1651, the relative viability in assay [1] (first compound 0.04 µM) was 1.01; in assay [1] (first compound 0.4 µM) it was 1.06; in assay [1] (first compound 1.265 µM), 1.09; in assay [1] (first compound 4 µM), 1.02; in assay [2] (first compound 0.04 µM), 1.08; in assay [2] (first compound 0.4 µM), 0.997. The relative viability was found to be 0.99 in assay [2] (first compound 1.265 µM); 0.626 in assay [2] (first compound 4 µM); 0.881 in assay [3] (first compound 0.04 µM); 0.714 in assay [3] (first compound 0.4 µM); 0.84 in assay [3] (first compound 1.265 µM); 0.848 in assay [3] (first compound 4 µM). Moreover, the relative viability in assay [4] (first compound 0.04 µM) was found to be 0.951; in assay [4] (first compound 0.4 µM), 0.892; in assay [4] (first compound 1.265 µM) it was 0.812; in assay [4] (first compound 4 µM), 0.732; in assay [5] (first compound 0.04 µM) it was 0.49; in assay [5] (first compound 0.4 µM) it was 0.387. The relative viability was determined as 0.448 in assay [5] (first compound 1.265 µM) and 0.384 in assay [5] (first compound 4 µM).
Turning to NCI-H1666, the relative viability in assay [1] (first compound 0.04 µM) was found to be 1.02; in assay [1] (first compound 0.4 µM), 0.853; in assay [1] (first compound 1.265 µM), 0.663; in assay [1] (first compound 4 µM), 0.492; in assay [2] (first compound 0.04 µM) it was 0.734; in assay [2] (first compound 0.4 µM), 0.564. For the same cell line, the relative viability in assay [2] (first compound 1.265 µM) was 0.452; in assay [2] (first compound 4 µM), 0.319; in assay [3] (first compound 0.04 µM), 0.915; in assay [3] (first compound 0.4 µM) it was 0.728; in assay [3] (first compound 1.265 µM), 0.876; in assay [3] (first compound 4 µM) it was 0.752. In addition, the relative viability in assay [4] (first compound 0.04 µM) turned out to be 0.954; in assay [4] (first compound 0.4 µM) it was 0.964; in assay [4] (first compound 1.265 µM), 0.693; in assay [4] (first compound 4 µM), 0.6; in assay [5] (first compound 0.04 µM) it was 0.837; in assay [5] (first compound 0.4 µM) it was 0.664. For the same cell line, the figures for the relative viability in assay [5] (first compound 1.265 µM) and in assay [5] (first compound 4 µM) were 0.623 and 0.615, respectively.
Regarding NCI-H1734, the relative viability turned out to be 0.884 in assay [1] (first compound 0.04 µM); 0.781 in assay [1] (first compound 1.265 µM); 0.737 in assay [1] (first compound 4 µM); 1.14 in assay [2] (first compound 0.04 µM); 0.948 in assay [2] (first compound 1.265 µM); 0.785 in assay [2] (first compound 4 µM). For the same cell line, the relative viability stood at 0.737 in assay [3] (first compound 0.04 µM); 0.664 in assay [3] (first compound 0.4 µM); 0.63 in assay [3] (first compound 1.265 µM); 0.581 in assay [3] (first compound 4 µM); 0.877 in assay [4] (first compound 0.04 µM); 0.8 in assay [4] (first compound 0.4 µM). The relative viability in assay [4] (first compound 1.265 µM) turned out to be 0.781; in assay [4] (first compound 4 µM) it was 0.753; in assay [5] (first compound 0.04 µM), 0.498; in assay [5] (first compound 0.4 µM), 0.422; in assay [5] (first compound 1.265 µM), 0.471; in assay [5] (first compound 4 µM) it was 0.487.
Consider NCI-H1755, for which the relative viability in assay [1] (first compound 0.04 µM) came out at 1.04; in assay [1] (first compound 0.4 µM), 0.942; in assay [1] (first compound 1.265 µM) it was 0.991; in assay [1] (first compound 4 µM), 0.959; in assay [2] (first compound 0.04 µM), 1.03; in assay [2] (first compound 0.4 µM), 0.979. Further, the relative viability in assay [2] (first compound 1.265 µM) worked out at 1.07; in assay [2] (first compound 4 µM), 1.16; in assay [3] (first compound 0.04 µM), 0.74; in assay [3] (first compound 0.4 µM), 0.779; in assay [3] (first compound 1.265 µM), 0.826; in assay [3] (first compound 4 µM), 0.864. Moreover, the relative viability turned out to be 0.945 in assay [4] (first compound 0.04 µM); 0.911 in assay [4] (first compound 0.4 µM); 0.901 in assay [4] (first compound 1.265 µM); 1.07 in assay [4] (first compound 4 µM); 0.382 in assay [5] (first compound 0.04 µM); 0.419 in assay [5] (first compound 0.4 µM). Besides, the values for the relative viability in assay [5] (first compound 1.265 µM) and in assay [5] (first compound 4 µM) were 0.408 and 0.363, respectively.
